Our source for the Kd and IC50 values is patent publication US20250332300A1 (priority 2024, published 2025).

Each structure is given as a SMILES string.

Common to all, as to type: binding
Assay [1] concerns the target T1, human HER2 (23-652) (Homo sapiens, UniProt P04626). The assay can be described thus: Surface plasmon resonance (SPR) for assessment of peptide affinity, human HER2. Conditions: SPR, human HER2 extracellular domain, 25° C., 1:1 binding model; read-out: huHER2-SPR-ONC KD. The protocol:
Each protein was immobilized either onto a SA sensorchip (Cytiva, BR-1005-31) or CM5 sensorchip (Cytiva, BR-1005-30) to a density of 800-2000 RU. […] For the assay setup the same conditions (flow rate, running buffer, peptide dilution) as described above were used. In a first step the Anti Fc IgG Ab (from Human Antibody Capture Kit, Ref. 29234600, Cytiva) was diluted into acetate pH 5.0 at 25 ug/mL and immobilized at a flow rate of 10 uL/min over 360 s to reach a density around 6000 RU. […] The peptides were tested with an association time of 280 s followed by a dissociation time of 3000 s at a flow rate of 30 uL/min. The regeneration was done using 3 M magnesium chloride regeneration solution as obtained with a contact time of 30 s at a flow rate of 10 uL/min. Curve fitting was performed using the BiacoreTM 8K evaluation software.
(Surface plasmon resonance follows binding to a sensor surface in real time, without labels.)

Assay [2] addresses T2, mouse HER2 (23-653) (Mus musculus, UniProt P70424). The experiment in a line: Surface plasmon resonance (SPR) for assessment of peptide affinity, mouse HER2. Conditions: SPR, mouse HER2 extracellular domain, 25° C., 1:1 binding model; read-out: moHER2-SPR-ONC KD. An excerpt:
Each protein was immobilized either onto a SA sensorchip (Cytiva, BR-1005-31) or CM5 sensorchip (Cytiva, BR-1005-30) to a density of 800-2000 RU.

Assay [3] addresses T1, human HER2 (23-652). The assay can be described thus: TR-FRET competition assay for peptide potency, human HER2. On the set-up: towards human HER2 (23-652) and mouse HER2 (23-653); made in house; host or cells: mammalian cells. Conditions: read-out: huHER2 TR-FRET IC50. On the technique in general: In TR-FRET formats the signal depends on donor and acceptor labels being close together.

The target of assay [4] is T2, mouse HER2 (23-653). The experiment in a line: TR-FRET competition assay for peptide potency, mouse HER2. On the set-up: mouse HER2 (23-653) using a Cy5 labeled peptide as a probe; made in house; host or cells: mammalian cells. Conditions: TR-FRET competition with Cy5 labeled peptide probe, 0.1 nM mouse HER2, 24 h incubation; read-out: moHER2 TR-FRET IC50.

By Kd is commonly meant the free concentration of one partner at which half of the binding sites on the other are occupied at equilibrium, for simple one-to-one binding. One may read the IC50 as the concentration needed to halve the response being measured.

T2 sequence (P70424 23-653): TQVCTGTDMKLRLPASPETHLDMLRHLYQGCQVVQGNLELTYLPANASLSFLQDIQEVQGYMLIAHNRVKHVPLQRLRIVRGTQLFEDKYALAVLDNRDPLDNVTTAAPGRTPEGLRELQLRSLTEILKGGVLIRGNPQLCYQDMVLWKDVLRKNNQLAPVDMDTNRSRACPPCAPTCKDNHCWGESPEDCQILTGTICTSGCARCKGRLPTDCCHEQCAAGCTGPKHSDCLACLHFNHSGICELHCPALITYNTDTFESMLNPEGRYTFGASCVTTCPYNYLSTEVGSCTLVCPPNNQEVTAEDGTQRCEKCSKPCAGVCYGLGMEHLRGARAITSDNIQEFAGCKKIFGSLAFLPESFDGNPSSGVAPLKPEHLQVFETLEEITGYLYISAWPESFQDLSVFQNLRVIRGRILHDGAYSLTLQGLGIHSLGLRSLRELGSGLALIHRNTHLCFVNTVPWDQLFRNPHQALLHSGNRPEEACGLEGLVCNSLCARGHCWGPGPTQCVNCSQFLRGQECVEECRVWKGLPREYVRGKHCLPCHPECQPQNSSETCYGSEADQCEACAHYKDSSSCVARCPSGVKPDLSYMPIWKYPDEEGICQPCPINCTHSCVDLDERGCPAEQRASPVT
T1 sequence (P04626 23-652): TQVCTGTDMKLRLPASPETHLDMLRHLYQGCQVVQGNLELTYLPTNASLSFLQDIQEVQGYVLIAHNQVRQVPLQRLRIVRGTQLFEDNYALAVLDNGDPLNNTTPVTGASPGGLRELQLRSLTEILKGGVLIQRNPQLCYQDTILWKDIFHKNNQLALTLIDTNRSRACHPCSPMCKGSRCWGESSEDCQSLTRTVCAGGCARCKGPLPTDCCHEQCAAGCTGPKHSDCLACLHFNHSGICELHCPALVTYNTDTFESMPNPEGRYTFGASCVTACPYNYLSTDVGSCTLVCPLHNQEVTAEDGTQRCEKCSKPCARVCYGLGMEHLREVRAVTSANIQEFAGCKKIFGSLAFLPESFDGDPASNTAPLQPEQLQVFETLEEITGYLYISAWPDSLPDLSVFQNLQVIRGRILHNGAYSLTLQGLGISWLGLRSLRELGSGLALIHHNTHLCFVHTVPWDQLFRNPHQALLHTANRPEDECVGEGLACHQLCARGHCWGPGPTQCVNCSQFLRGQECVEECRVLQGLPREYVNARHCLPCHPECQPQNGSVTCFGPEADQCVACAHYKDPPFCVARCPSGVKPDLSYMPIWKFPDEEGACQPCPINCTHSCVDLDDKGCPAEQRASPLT

Take `CC(=O)NCCCC[C@H]1C(=O)N[C@@H](Cc2c[nH]c3ccc(O)cc23)C(=O)N[C@@H](Cc2c[nH]c3ccccc23)C(=O)N[C@@H](C2CC2)C(=O)N(C)[C@H](C(=O)N(C)[C@@H](Cc2ccc(F)cc2)C(=O)N[C@@H](CCCCNC(=O)c2ccc([N+](C)(C)C)nc2)C(N)=O)CNC(=O)CCC[C@H](NC(C)=O)C(=O)N[C@@H](Cc2ccc(O)cc2)C(=O)N[C@@H](CO)C(=O)N(C)[C@@H](CCc2ccccc2)C(=O)N1C` [Example F2]: the Kd at human HER2 (23-652) [1] and at mouse HER2 (23-653) [2] was < 0.1 nM in each case. For the same compound, the IC50 at human HER2 (23-652) [3] was < 0.1 nM; at mouse HER2 (23-653) [4], 0.2 nM.
